Measurements reported in US9884862B2, “Pyridopyrimidinedione derivatives” (Novartis AG, priority 2014, dated 2018).

Assays:
[1] = tested on: alpha-L-Iduronidase W402X in Hurler patient derived fibroblast cells; experiment: Hurler patient derived fibroblast cell cultures, restored alpha-L-iduronidase activity (W402X readthrough); assay type: cell-based, human; conditions: Homo sapiens, Fibroblast, 192 h, 8 days incubation, highest concentration 20 uM; for Emax: 14 mM paromomycin = 100% control, read-out: Amax; for AC50: 8 point dilutions
Source text: Activity of compounds of the present invention was examined in patient derived fibroblast cells. The genotyped cells were derived from the Coriell Institute (# GM00798) and contain an in frame homozygous TGG to TAG change at nucleotide 1293 of exon 9 which results in a W402X mutation. The W402X mutation is one of the most common Hurler syndromes causing loss of function mutation. Between 60-70% of genotyped patients contain either the Q70X and/or the W402X in mutation and are classified as severe MPSI patients. This TAG stop codon triplet is permissive to aminoglycoside mediated translational readthrough which served as activity control for compound testing. Readthrough of W402X restores alpha-L-Iduronidase activity which results in removal of lysosomal accumulated Glycosaminoglycan's. Iduronidase expression could neither be detected by Taqman PCR© nor by enzyme activity or ELISA methods without compound stimulation. Compounds were tested in concentration response mode. Therefore 5000 patient cells/40 ul/well in 384 well plates were used. Compound dilutions were derived from freshly prepared 10 mM compound stock solutions. Highest concentration was 20 uM and subsequently diluted 1: 3.16 (8 point dilutions, n=4). Final DMSO concentration was below 0.5% and tested to be without effect on cell viability, growth and readthrough. Cells were incubated for 8 days with one cell media and compound exchange at day 3. Thereafter cell media was removed and cells were lysed (0.4 M Sodiumformate, 0.1% NaN3, 0.9% NaCl, 0.2% Triton, pH 3.5). Restored alpha-L-iduronidase activity in cell lysates was measured with the fluorescent 4-MU iduronide substrate (5 ul of 0.4 mM 4 Methylumbelliferyl alpha-L-iduronide/well) after 48 h incubation. Paromomycin was used as reference control (14 mM=100% control).

CFTR-Y122X = CFTR-Y122X assay (dual reporter isogenic Hek293 cell lines, Renilla luminescence readthrough); assay type: cell-based; conditions: Homo sapiens, HEK293, 24 h, nonsense mutation suppression, 24 h incubation, tested up to 100 μM; for Emax: 100% = 14 mM paromomycin, read-out: Amax
Source text: Activity of compounds of the present invention was examined in recombinant, dual reporter isogenic Hek293 cell lines (“CFTR-Y122X assay”). The engineered reporter constructs contained the 18 bp sequence stretch corresponding to a common Y122X PTC mutation in CFTR class I mutant patients (see Sermet-Gaudelus, BMC Medicine, 2007, 5(5)). Instead of a tyrosine (Y) in position 122 of the CFTR protein a TGA stop codon interrupts the open reading frame (Y122X) of the corresponding mRNA. This TGA stop codon triplet (followed by the pyrimidine base cytosine) is permissive to aminoglycoside mediated translational readthrough which served as positive control for high throughput screening. A corresponding TAA stop codon variant and a wildtype non mutated construct was used for confirmation and counter screening. The CFTR sequence was sandwiched between an eGFP reporter, and a triple myc tag sequence fused to a full length Renilla reporter. All sequences, including an intron containing one positioned pre-eGFP (b-globin intron) were cloned in frame. The corresponding expression constructs were stably expressed in the isogenic HEK-R4 cell host (Invitrogen Incorp.) and selected by blasticidin resistance. The isogenic integration of the construct minimizes gene dose effects and improves assay reproducibility. Stably integrated single cell derived clones were selected and characterized for aminoglycoside mediated readthrough. […] Readthrough of Y122X accumulates an intracellular localized fusion protein approximately 65.5 kDa in size as controlled by western blot analysis and immunofluorescence using an anti-renilla antibody. The eGFP reporter pre-PTC mutation serves as visual control for genetic stability of the screening clones and minimizes protein degradation of small fusion protein amounts. In the assay, compound concentration was 10 μM. In miniaturized 1536 well format 2000 cells were dispensed in 4 μl/well and incubated for 24 h at 37° C., 5% CO2. 40 nl compounds were placed on the cells with control wells containing 1 ul Paramomycin and 14.4 mM final concentration. Compounds were incubated for 24 h. Renilla Glo substrate (2.5 ul) was added and plates were centrifuged and processed for luminescence measurement using various readers. Activity calculation was done using the equation: A1(%)=100*(S−NC)/(AC−NC) where AC, NC and S correspond to active controls (injection of Stimulation buffer=100% stimulation), neutral controls (buffer injection which Iloprost EC10) and screening samples (S). NC corresponds to 0% activity whereas AC is 100% activity (14 mM paromomycin). False positive artifacts were removed in confirmation and validation screening using the same assay format followed by counterscreening using the respective wildtype construct (w/o PTC mutation) cell model. Compounds were tested up to 100 μM compound concentration.

## Cn1c2cc(Cl)sc2c(=O)c2c(=O)n(-c3ccccc3)c(C3CCC3)nc21 [Example 2.17, 7-chloro-2-cyclobutyl-9-methyl-3-phenylthieno[2′,3′:5,6]pyrido[2,3-d]pyrimidine-4,5(3H,9H)-dione]
[1]
  Emax: 128%
  AC50: 10 µM
CFTR-Y122X
  Emax: 151%
  AC50: 4 µM

## Cn1c2nc(C3CCC3)n(-c3ccccc3)c(=O)c2c(=O)c2cc(Cl)sc21 [Example 2.18, 7-chloro-2-cyclobutyl-9-methyl-3-phenylthieno[3′,2′:5,6]pyrido[2,3-d]pyrimidine-4,5(3H,9H)-dione]
[1]
  Emax: 200%
  AC50: 11 µM
CFTR-Y122X
  Emax: 154%
  AC50: 3.3 µM

## CC(C)c1nc2c(c(=O)c3cc(Cl)sc3n2C)c(=O)n1-c1ccccc1 [Example 2.19]
[1]
  Emax: 16%
CFTR-Y122X
  Emax: 104%
  AC50: 15 µM

## CC(C)c1nc2c(c(=O)c3sc(Cl)cc3n2C)c(=O)n1-c1ccccc1 [Example 2.20, 7-chloro-2-isopropyl-9-methyl-3-phenylthieno[2′,3′:5,6]pyrido[2,3-d]pyrimidine-4,5(3H,9H)-dione]
[1]
  Emax: 7%
CFTR-Y122X
  Emax: 70%
  AC50: 19 µM

## Cc1csc2c(=O)c3c(=O)n(-c4ccccc4)c(C(C)C)nc3[nH]c12 [Example 2.21, 2-isopropyl-8-methyl-3-phenylthieno[2′,3′:5,6]pyrido[2,3-d]pyrimidine-4,5(3H,9H)-dione]
[1]
  Emax: 25%
CFTR-Y122X
  Emax: 180%
  AC50: 14 µM

## Cc1csc2c(=O)c3c(=O)n(-c4ccccc4)c(C(C)C)nc3n(C)c12 [Example 2.22, 2-isopropyl-8,9-dimethyl-3-phenylthieno[2′3′:5,6]pyrido[2,3-d]pyrimidine-4,5(3H,9H)-dione]
[1]
  Emax: 8%
CFTR-Y122X
  Emax: 166%
  AC50: 16 µM

## CC(C)c1nc2[nH]c3c(c(=O)c2c(=O)n1-c1ccccc1)CCCCC3 [Example 3.1, 2-isopropyl-3-phenyl-7,8,9,10-tetrahydro-3H-cyclohepta[5,6]pyrido[2,3-d]pyrimidine-4,5(6H,11H)-dione]
[1]
  Emax: 9%
  AC50: 1.4 µM
CFTR-Y122X
  Emax: 190%
  AC50: 13 µM

## CC(C)c1nc2c(c(=O)c3c(n2C)CCCCC3)c(=O)n1-c1ccccc1 [Example 3.2, 2-isopropyl-11-methyl-3-phenyl-7,8,9,10-tetrahydro-3H-cyclohepta[5,6]pyrido[2,3-d]pyrimidine-4,5(6H,11H)-dione]
[1]
  Emax: 83%
  AC50: 12 µM
CFTR-Y122X
  Emax: 213%
  AC50: 11 µM

## CC(C)c1nc2[nH]c3c(c(=O)c2c(=O)n1-c1ccccc1)CCC3 [Example 3.3, 2-isopropyl-3-phenyl-7,8-dihydro-3H-cyclopenta[5,6]pyrido[2,3-d]pyrimidine-4,5(6H,9H)-dione]
[1]
  Emax: 8%
CFTR-Y122X
  Emax: 112%
  AC50: 21 µM

## CC(C)c1nc2c(c(=O)c3c(n2C)CCC3)c(=O)n1-c1ccccc1 [Example 3.4, 2-isopropyl-9-methyl-3-phenyl-7,8-dihydro-3H-cyclopenta[5,6]pyrido[2,3-d]pyrimidine-4,5(6H,9H)-dione]
[1]
  Emax: 8%
  AC50: 1.4 µM
CFTR-Y122X
  Emax: 40%
  AC50: 18 µM

## Cc1[nH]c2nc(C(C)C)n(-c3ccccc3)c(=O)c2c(=O)c1C [Example 3.5, 2-isopropyl-6,7-dimethyl-3-phenylpyrido[2,3-d]pyrimidine-4,5(3H,8H)-dione]
[1]
  Emax: 9%
CFTR-Y122X
  Emax: 114%
  AC50: 17 µM

## CC1CCc2c([nH]c3nc(C(C)C)n(-c4ccccc4)c(=O)c3c2=O)C1 (stereo not shown) [Example 3.6, 2-isopropyl-8-methyl-3-phenyl-6,7,8,9-tetrahydropyrimido[4,5-b]quinoline-4,5(3H,10H)-dione]
[1]
  Emax: 10%
CFTR-Y122X
  Emax: 46%
  AC50: 27 µM

## Cc1c(C)n(C)c2nc(C(C)C)n(-c3ccccc3)c(=O)c2c1=O [Example 3.7, 2-isopropyl-6,7,8-trimethyl-3-phenylpyrido[2,3-d]pyrimidine-4,5(3H,8H)-dione]
[1]
  Emax: 14%
CFTR-Y122X
  Emax: 61%
  AC50: 22 µM

## CC1CCc2[nH]c3nc(C(C)C)n(-c4ccccc4)c(=O)c3c(=O)c2C1 (stereo not shown) [Example 3.8, 2-isopropyl-7-methyl-3-phenyl-6,7,8,9-tetrahydropyrimido[4,5-b]quinoline-4,5(3H,10H)-dione]
[1]
  Emax: 12%
  AC50: 1.3 µM
CFTR-Y122X
  Emax: 219%
  AC50: 12 µM

## CC1CCc2c(n(C)c3nc(C(C)C)n(-c4ccccc4)c(=O)c3c2=O)C1 (stereo not shown) [Example 3.9, 2-isopropyl-8,10-dimethyl-3-phenyl-6,7,8,9-tetrahydropyrimido[4,5-b]quinoline-4,5(3H,10H)-dione]
[1]
  Emax: 15%
CFTR-Y122X
  Emax: 11%
  AC50: 11 µM

## CC1CCc2c(c(=O)c3c(=O)n(-c4ccccc4)c(C(C)C)nc3n2C)C1 (stereo not shown) [Example 3.10, 2-isopropyl-7,10-dimethyl-3-phenyl-6,7,8,9-tetrahydropyrimido[4,5-b]quinoline-4,5(3H,10H)-dione]
[1]
  Emax: 6%
CFTR-Y122X
  Emax: 237%
  AC50: 12 µM

## CC(C)c1nc2c(c(=O)c3c(n2C)CCCC3)c(=O)n1-c1ccccc1 [Example 3.11, 2-isopropyl-10-methyl-3-phenyl-6,7,8,9-tetrahydropyrimido[4,5-b]quinoline-4,5(3H,10H)-dione]
[1]
  Emax: 17%
CFTR-Y122X
  Emax: 137%
  AC50: 22 µM

## Cc1[nH]c2nc(C3CCC3)n(-c3ccccc3)c(=O)c2c(=O)c1C [Example 3.12, 2-cyclobutyl-6,7-dimethyl-3-phenylpyrido[2,3-d]pyrimidine-4,5(3H,8H)-dione]
[1]
  Emax: 183%
  AC50: 12 µM
CFTR-Y122X
  Emax: 505%
  AC50: 4.9 µM

## Cc1c(C)n(C)c2nc(C3CCC3)n(-c3ccccc3)c(=O)c2c1=O [Example 3.13, 2-cyclobutyl-6,7,8-trimethyl-3-phenylpyrido[2,3-d]pyrimidine-4,5(3H,8H)-dione]
[1]
  Emax: 34%
CFTR-Y122X
  Emax: 297%
  AC50: 9.2 µM
